Data published in patent US20070111267A1, “Method of determining efficacy of anticancer drug and determination kit therefor” (priority 2003, published 2007).
Where a name gives a salt, the structure may show the parent alone.

Columns and labels:
K562 = test: Sensitivity of cell line to the tyrosine kinase inhibitor; type: cell-based, human
From the text: K562: human CML cell line. Expression of Bcr-Abl protein. Sensitive to Bcr-Abl inhibitor.
(§1) One to two μM STI571 was directly added to a cell culture.

KYO-1 = test: as above; type: cell-based, human; conditions: KYO-1 cell line
From the text: KYO-1: human CML cell line. Expression of Bcr-Abl protein. Resistant to Bcr-Abl inhibitor. See Leukemia Research 9: 921-926, (1985).
as §1

HEL = test: as above; type: cell-based, human
From the text: HEL: human erythrocytic leukemia cell line. No expression of Bcr-Abl protein. Resistant to Bcr-Abl inhibitor.
as §1

MEG = test: as above; type: cell-based, human
From the text: MEG: human CML cell line. Expression of Bcr-Abl protein. Sensitive to Bcr-Abl inhibitor.
as §1

CMK = test: as above; type: cell-based, human
From the text: CMK: human megakaryocytic leukemia cell line. No expression of Bcr-Abl protein. Resistant to Bcr-Abl inhibitor.
as §1

MOLM1 = test: as above; type: cell-based, human
From the text: MOLM1: human CML cell line. Expression of Bcr-Abl protein. Sensitive to Bcr-Abl inhibitor.
as §1

p27 protein = conditions: reported in Tomoda K et al. J Biol Chem. 2002; cited from earlier work

Structure (SMILES) | Sensitivity to the tyrosine kinase inhibitor (K562) | Sensitivity to the tyrosine kinase inhibitor (KYO-1) | Sensitivity to the tyrosine kinase inhibitor (HEL) | Sensitivity to the tyrosine kinase inhibitor (MEG) | Sensitivity to the tyrosine kinase inhibitor (CMK) | Sensitivity to the tyrosine kinase inhibitor (MOLM1) | degradation of p27 protein by the Jab1 small complex (p27 protein)
Cc1ccc(NC(=O)c2ccc(CN3CCN(C)CC3)cc2)cc1Nc1nccc(-c2cccnc2)n1 [tyrosine kinase inhibitor, imatinib mesylate] | sensitive | resistant | resistant | sensitive | resistant | sensitive | 
CCC(=C/[C@H](C)C/C=C/C(C)=C/[C@@H](C)C(=O)[C@@H](C)[C@H](O)[C@@H](C)C/C(C)=C/C(=O)O)/C=C/[C@@H]1OC(=O)C=C[C@@H]1C [leptomycin B] |  |  |  |  |  |  | inhibited
